Results: US20030196279A1, “Single-bath biopreparation and dyeing of textiles” (Novozymes North America, Inc., priority 1999, published 2003)

Assays:
pectate lyase = experiment: Compatibility of pectate lyase with dyes, vibration viscometry assay on polygalacturonic acid; type: biochemical; conditions: 0.5 ml of 10 g/l dye solution added; pH 8.5, 40° C., 20 minutes; relative to none-dye control
Protocol: An analytical assay is used in compatibility tests. Prior to this assay, 5 mM phosphate buffer pH 8.5 is made up using KH2PO4 and NaOH (both from Fisher). The other solutions are constituted as follows:
i) The substrate is polygalacturonic acid in sodium salt form (from SIGMA). The substrate solution is made up to 11.436 g/l by dissolving polygalacturonic acid sodium salt in the phosphate buffer.
ii) Dye solutions are made up to 10 g/l by dissolving a commercial dye in the phosphate buffer.
iii) An internal standard pectate lyase (2600 APSU/g) is used. The enzyme solution is made up to 500 APSU/ml by dissolving the pectate lyase in the phosphate buffer.
During the assay, 3.5 ml substrate solution was pipetted into each tube. 0.5 ml of a dye solution or buffer was added and mixed well. The tube was then preheated in 40° C. water bath for 5 minutes. A total of 0.5 ml solution, including enzyme, and buffer was added using Hamilton Micro Lab 900. In dye compatibility, the 0.5 ml solution was made up with 40 μl enzyme solution and 460 μl buffer. For standard curve, 0-90 μl enzyme solution was used. Once enzyme was added, the solution was mixed immediately and the tube incubated at 40° C. for 20 minutes. The viscosity was then measured after putting the tube on a vibration viscometer (Sofraser Viscometer-mivi 3000, from France) for 10 seconds. At all conditions, experiments were performed in duplicate.
A standard linear curve was obtained within 0-5 APSU/ml pectate lyase concentration range (0-45 μl enzyme solution added). The correlation is given in the equation below: […]
Since the Y was obtained from experimental measurements, X was then calculated using the above equation. The enzyme activity with the addition of dye was compared to the activity of none-dye control. The relative activity is illustrated in Table 13. […] Since the chromophore structure of reactive dye shares similar chemical structure of direct dye and other dye classes, similar compatibility results may be expected for other dye classes. […] Since commercial dyes are not pure and often contains salt, the positive impact may be due to the salt in dye formula.

[1] = Wetting test, water drop test, AATCC Test Method 79-1992; conditions: Example 10; added to pectinase biopreparation and dyeing solution
Protocol: The wetting test was performed using water according to AATCC Test Method 79-1992. Five measurements were taken from each of three areas along the fabric in this water drop test. Color measurements were made using reflectance Macbeth Color Eye System with Optiview 1.7 software, using 10° standard observer and illuminant D65, which represents average daylight over range of 380-830 nm. Ten measurements at different positions of fabric tube were carried out.

[2] = system: pectate lyase activity on woven cotton fabric; conditions: Example 5; 2000 APSU/kg pectate lyase, pH 9.2, 60° C., 30 minutes, woven fabric 480U
Protocol: A buffer containing 2 mM borate at pH 9.2 and 1 g/l nonionic surfactant Tergitol 15-S-12 was prepared. The solution was transferred to Labomat beakers (Werner-Mathis USA, Inc., NC). […] Swatches of a woven fabric (type 480U from Testfabrics, Inc., PA) were then added to the beakers so that the liquor-to-fabric ratio was 10 ml/g. After the temperature was raised to 60° C., 2000 APSU/kg fiber of pectate lyase were added and the fabric was incubated at 60° C. for 30 minutes. The swatches were then removed and rinsed twice in hot and cold water.
The amount of residual pectic substances remaining on the fabric was determined by measuring the color strength of the fabric dyed with Ruthenium red, a dye with an affinity for pectic substances. For the Ruthenium red assay, a fresh solution was prepared containing 0.2 g/l Ruthenium red, 1.0 g/l ammonium chloride, 2.5 ml/l 28% ammonium hydroxide solution, 1.0 g/l Silwet L-77 (Wetter, Polyalkyleneoxide modified heptamethyltrisiloxane), and 1.1 g/l Tergitol 15-S-12. The solution was used at a ratio of 100 ml solution/gram of fabric. Fabric swatches were dyed at room temperature in Labomat beakers for 15 minutes and then rinsed with cold water. After drying, the color of swatches was assessed by measuring the reflectance of the Ruthenium red-dyed fabric on Macbeth color eye at 540 nm, and the dye on the fabric was calculated as K/S value.

Row | % Activity (relative pectate lyase activity) (pectate lyase) [%] | Compound | further results
1 | 117.6 | C=C(Br)C(=O)Nc1ccc(N=Nc2c(NC)ccc3cc(S(=O)(=O)[O-])cc(O)c23)c(S(=O)(=O)[O-])c1.[Na+].[Na+] [Lanasol Red 5B] | –
2 | – | cellulase | wettability (wetting time in the drop test, FIG. 2) [1]: better wettability
3 | 114.8 | Nc1c(N=Nc2ccc(S(=O)(=O)CCOS(=O)(=O)[O-])cc2)c(S(=O)(=O)[O-])cc2cc(S(=O)(=O)[O-])c(N=Nc3ccc(S(=O)(=O)CCOS(=O)(=O)[O-])cc3)c(O)c12.[Na+].[Na+].[Na+].[Na+] [Remazol Black B] | –
4 | – | O=P(O)(O)OP(=O)(O)OP(=O)(O)O [sodium tripoly phosphate (STPP), sodium tripoly phosphate] | wettability (wetting time in the drop test, FIG. 2) [1]: better wettability
5 | 200.9 | Nc1c(S(=O)(=O)[O-])cc(Nc2cccc(S(=O)(=O)CCOS(=O)(=O)[O-])c2)c2c1C(=O)c1ccccc1C2=O.[Na+].[Na+] [Remazol Br. Blue R Spec.] | –
6 | – | O=S(=O)([O-])[O-].[Na+].[Na+] [sodium sulfate] | sodium sulfate concentration at which a minimum amount of pectic residue was left on the fabric [2]: about 20 g/l
7 | 110.1 | CC(=O)Nc1ccc2cc(S(=O)(=O)O)c(N=Nc3ccc(S(=O)(=O)CCOS(=O)(=O)O)cc3)c(O)c2c1.[Na] [Remazol Br. Orange 3R] | –
